Laboratory results published in US5195966A, “Treatment of mastitis and applicator therefor” (Diversey Limited, priority 1990, dated 1993).

What was measured:
[1] = in vivo
Excerpt: The completed work, which takes the form of a series of individual studies, monitors the level of residues in milk from cows that were subjected to six infusions of a single normal strength "Clorpactin" dose (0.5 grams in 40 mls of physiological saline), both during infusion and for a series of milkings after the treatment was complete.
Analysis of the milk samples from each cow was by ion-pair reverse-phase chromatography. Calculation of the "Clorpactin" residues was, in the case of Study 01, by the peak height method, as the milk used for the standards was obtained from a different source from the cows under test (consequent detection limit 7 ppm). In studies, 02, 03 and 04 as the standards were made in milk obtained from the cow under test a few days prior to treatment, the peak area method was used (detection limit 1 ppm). […] Treatments:
Two mid-lactation cows (Fresian) were selected for the trial, with each being subjected to one course of treatment with the ""Clorpactin WCS-90". Treatments comprised six infusions, following six successive milkings, of "Clorpactin" at a single normal strength dose (0.5 gms per 40 mls of physiological saline)
Two healthy mid-lactation cows (Fresian) were selected for this trial, with again each cow being subjected to a single course of treatment with "Clorpactin WCS-90" Study 02 differed from Study 01 in that a sample of the milk from the quarters under test was removed from the cow a few days prior to treatment, to enable accurate standards to be prepared.
Three healthy mid-lactation cows (Fresian) were selected for the trial, with each being subjected to one course of treatment with the "Clorpactin WCS-90", to each of the four quarters of the animals.
The milk from all four quarters was monitored for residues during and after treatment, with the standards being made up in milk obtained from the quarters a few days before the trial.
Two mastitic cows, used in the efficacy study, were monitored for residues in the milk from a point where the milk appeared to be normal. It was not possible to evaluate the severely mastitic milk as no standards may be prepared to evaluate milk that is constantly changing in composition. The standards used in this case were made in milk obtained some 4 days after the last sample was taken.
Means cited at the foot of the Table are calculated taking the <7 ppm and <1 ppm results as 7 and 1, respectively.

E. coli [2] = test: Clinical cure of mastitis, E. coli; assay type: in vivo, dairy cattle; conditions: of 4 cases; 40 ml 1.25% w/v, 6 infusions at successive milkings
Excerpt: (§1) Efficacy studies used half herds on a positive control and half herds on the experimental treatment. The protocol agreed was that herds were randomly split into two halves by number. Odd numbered cows received experimental treatment and even numbered cows received the positive control. Any animal sufficiently badly affected (i.e. systematically affected) should be the subject of a visit from a veterinary surgeon and was not included in the trial on either side.
(§2) Milk samples of each infected quarter were sent to the MMB Laboratories for cell count and bacterial identification as follows:.
(§3) A clinical cure is defined as the udder returning to normal function.
(§4) 40 ml of 1.25% w/v solution of sodium oxychlorosene infused 6 times at 6 milkings.
(§5) 1 full tube of 100 mg procaine penicillin/100 mg dihydro-streptomycin sulphate infused 6 times at 6 milkings. Five measurements can be made from the figures available:
(§6) Odd numbered animals. Sodium oxychlorosene. 40 ml 1.25% w/v. 6 times at successive milkings.
(§7) Procaine penicillin/Dihydrostreptomycin sulphate. 6 times at 6 milkings.

[3] = test system: starters Streptococcus thermophilus and Lactobacillus bulgarius; test: Inhibitory effect on yoghurt starter cultures (lactic acid by titratable acidity); assay type: cell-based
Experimental: The inhibitory effect of "Clorpactin" on starter cultures was also investigated: Raw whole milk was pasteurized and spiked with various concentrations of freshly prepared "Clorpactin". These samples were inoculated with the starters Streptococcus thermophilus and Lactobacillus bulgarius contained in natural yoghurt, incubated at 37°/5 hours and the percent lactic acid determined by titratable acidity (BSI, 1741:1963).

[4] = test system: somatic cell counts in milk; test: Mean somatic cell counts in milk during and after completed treatments; assay type: in vivo, dairy cattle
Excerpt: as §2
Somatic cell counts in milk from individual quarters is an indication of the state of health of that quarter. The higher the cell count, the greater is the degree of infection or the irritant effect in the udder.
The mean cell counts for all experimental milk samples submitted to the MMB are shown below. It is not always possible to obtain a cell count if the milk is obviously mastitic or if the sample deteriorates in transit. One problem with sodium oxychlorosene samples is that, due to lack of inhibitory effects, samples in transit may deteriorate quite rapidly. Samples containing antibiotic inhibitors are generally better protected from microbiological deterioration in transit. Some samples, when specifically needed for cell counts and not for causative organism assay, have been protected by the addition of formalin. This was carried out, for instance, when the irritancy studies were carried out.
(§8) (The variations in n, the number of determinations from which the mean cell count is calculated, are due to various factors, such as samples leaking in transit, faster decomposition of samples in hot weather, especially where no inhibitor substances are present (i.e. sodium oxychlorosene). Mean number of infusions to effect a clinical cure where a clinical cure is affected after up to 6 infusions.

St. faecalis = test: Minimum inhibitory concentration against St. faecalis; assay type: cell-based; conditions: St. faecalis (intestinal flora)
Str. agalactiae = test: Clinical cure of mastitis, Str. agalactiae; assay type: in vivo, dairy cattle; conditions: 40 ml 1.25% w/v, 6 infusions at successive milkings
Excerpt: as §1, §2, §3, §4, §5, §6, §7

[5] = bovine, in vivo
Experimental: An experimental study was conducted to determine if any absorption occurs between quarters during a course of treatment with "Clorpactin WCS-90".
The method used was to infuse two of the quarters of a healthy cow with a double normal strength course of treatment and to monitor each of the four quarters for "Clorpactin" residues, both during and after the trial. This with the assumption that if the material were being transferred between quarters by any mechanism it would be detected in the untreated quarters.
Analysis of the milk samples from each quarter was by ion-pair reverse-phase chromatography.
Calculation of the "Clorpactin" residues was by peak area with the milk used for the standards being prepared from milk obtained several days before treatment.
Two of the quarters were each infused with a double normal dose of "Clorpactin WCS-90" (2×0.5 g in 40 mls of physiological saline) on six consecutive occasions following 6 milkings.
The milk from all four quarters was monitored for residues both during and after the trial to determine if any transfer to untreated quarters had occurred.
The first infusion occurred after Milking No. 1, with the consequence that Milking 1 represents the background.

E. coli [6] = test: Minimum inhibitory concentration against E. coli; assay type: cell-based; conditions: E. coli (intestinal flora)
Str. uberis = test: Clinical cure of mastitis, Str. uberis; assay type: in vivo, dairy cattle; conditions: 40 ml 1.25% w/v, 6 infusions at successive milkings
Excerpt: as §1, §2, §3, §4, §5, §6, §7

[7] = test system: Staph. coagulase positive; test: Clinical cure of mastitis, Staph. coagulase positive; assay type: in vivo, dairy cattle; conditions: 40 ml 1.25% w/v, 6 infusions at successive milkings
Excerpt: as §1, §2, §3, §4, §5, §6, §7

mastitis = test: Clinical efficacy in mastitis, overall and number of infusions to effect a clinical cure; assay type: in vivo, dairy cattle
Excerpt: as §1, §2, §3, §4, §5, §8

dairy cattle = conditions: bovine, in vivo
rats = test: LD50 of Clorpactin WCS-90 in a milk vehicle by the oral route; assay type: in vivo; conditions: sterilized, γ-irradiated (2.5 megarads)
Str. dysgalactiae = test: Clinical cure of mastitis, Str. dysgalactiae; assay type: in vivo, dairy cattle; conditions: 40 ml 1.25% w/v, 6 infusions at successive milkings
Excerpt: as §1, §2, §3, §4, §5, §6, §7

[8] = cited from earlier work

sodium oxychlorosene
10× mean residue level after withdrawal period [1]: 31 ppm
levels detected after treatment is complete [1]: quickly drops off to background
milking by which background has been achieved [1]: ≤ 8
withdrawal after treatment supported by the data [1]: one milking withdrawal
Clinical Cures (E. coli [2]): 3
percent lactic acid ([3]; Clorpactin-spiked milk up to 0.01% (100 ppm), 37°/5 hours, control also about 0.9%): about 0.9 % lactic acid
effect on yoghurt starter culture activity ([3]; conclusion): no adverse affect on yoghurt starter culture activity
effect on lactic acid production ([3]; levels of up to 0.01% (100 ppm) in pasteurized milk, 37°/5 hours): no effect on lactic acid production
Mean Cell Counts ([4]; day 0): 6870
Mean Cell Counts ([4]; day 1): 6092
Mean Cell Counts ([4]; day 2): 4912
Mean Cell Counts ([4]; day 3): 4845
Mean Cell Counts ([4]; day 4): 3468
Mean Cell Counts ([4]; day 5): 2018
Mean Cell Counts ([4]; day 12): 1576
Mean Cell Counts ([4]; day 19): 965
minimum inhibitory concentration (St. faecalis): approximately 2000 ppm
% Clinical Cures (Str. agalactiae; 51 cases): 82%
Clinical Cures (Str. agalactiae; of 51 cases): 41
Clorpactin in the untreated quarters [5]: No evidence of any "Clorpactin" was detected in the untreated quarters
milking number by which level is clear [5]: ≤ 8
transference to the untreated quarters [5]: no mechanism of transference
minimum inhibitory concentration (E. coli [6]): approximately 2000 ppm
% Clinical Cures (Str. uberis; 25 cases): 76%
Clinical Cures (Str. uberis; of 25 cases): 19
% Clinical Cures ([7]; 72 cases): 90%
Clinical Cures ([7]; of 72 cases): 65
clinical cure versus the conventional antibiotic (mastitis; 1.25% w/v, 95% confidence level): superior to the conventional antibiotic
significance (p) of mean number of infusions, Experimental vs Positive control (mastitis; 72 degrees of freedom, t = 3.098): < 0.01
Mean number of infusions to effect a clinical cure (mastitis; clinical cure effected after up to 6 infusions, n = 70 (sodium oxychlorosene 1.25% w/v, On1 1.61), n = 30 (antibiotic, On1 1.10)): 4.11
adverse effects (dairy cattle): No adverse effects were found
LD50 (rats): > 5000 mg/kg
% Clinical Cures (Str. dysgalactiae; 10 cases): 70%
Clinical Cures (Str. dysgalactiae; of 10 cases): 7

(mon)oxychlorosene
hydrolysis in water ([8]; after dissolving): hydrolyses rapidly
dissolution in water [8]: dissolves slowly in water
